Experiment [1] concerns the target T1, human recombinant serotonin 5-HT2A receptor (Homo sapiens, UniProt P28223).
T1 construct: purchased PerkinElmer Life and Analytical Sciences, USA; host or cells: CHO-K1
Put plainly: Binding affinity for serotonin 5-HT2A receptor ([3H]Ketanserin). As to conditions: CHO-K1 expressed receptor, 1 nM [3H]Ketanserin. In short, it runs like this: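 Membranes from CHO-K1 cells expressing recombinant receptor (5 ug/well) incubated 60 min at 27 with 1 nM [3H]ketanserin in 50 mM Tris-HCl pH 7.4, 4 mM CaCl2, 0.1% ascorbic acid; mianserin 20 uM defined nonspecific binding. Filtration and counting; IC50 by nonlinear regression over 7-8 concentrations in duplicate.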

Experiment [2] concerns the target T2, human recombinant 5-HT2C receptor (Homo sapiens, UniProt P28335).
T2 construct: purchased PerkinElmer
T2 sequence (P28335 33-458): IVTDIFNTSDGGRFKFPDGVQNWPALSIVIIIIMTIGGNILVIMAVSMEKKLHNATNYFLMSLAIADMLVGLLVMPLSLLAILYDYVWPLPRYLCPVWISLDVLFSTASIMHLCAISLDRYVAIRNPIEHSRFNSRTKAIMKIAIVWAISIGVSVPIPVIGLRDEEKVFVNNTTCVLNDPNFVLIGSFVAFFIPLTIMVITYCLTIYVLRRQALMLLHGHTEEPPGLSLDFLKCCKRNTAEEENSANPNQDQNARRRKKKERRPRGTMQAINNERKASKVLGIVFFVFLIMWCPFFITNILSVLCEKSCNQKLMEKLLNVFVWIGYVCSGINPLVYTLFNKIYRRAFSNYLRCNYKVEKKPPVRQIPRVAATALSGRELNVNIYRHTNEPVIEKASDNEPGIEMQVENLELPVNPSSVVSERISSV
Put plainly: Binding affinity for serotonin 5-HT2C receptor ([3H]Mesulergine). As to conditions: CHO-K1 membranes, 1.3 nM [3H]Mesulergine. A digest of the protocol:
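Competition binding with [3H]mesulergine; nonspecific binding defined with 100 uM mianserin. Incubation 60 min at 27, stopped by rapid filtration onto glass fiber filters presoaked in 0.5% PEI.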

Experiment [3] deals with T3, human serotonin transporter (Homo sapiens, UniProt P31645).
T3 construct: purchased PerkinElmer; host or cells: HEK-293
Put plainly: Binding affinity for serotonin transporter ([3H]Imipramine). As to conditions: HEK-293 membranes, 2 nM [3H]Imipramine. In short, it runs like this:
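Membranes from HEK-293 cells expressing human serotonin transporter (5 ug/well) incubated with compound and 2 nM [3H]imipramine in 50 mM Tris-HCl pH 7.4, 120 mM NaCl, 5 mM KCl, 30 min at 27. Bound ligand separated by filtration onto glass fiber filters presoaked in 0.5% PEI, washed with ice-cold Tris-HCl/0.9% NaCl.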

Experiment [4] deals with mice. As to the kind of experiment: Anti-depressants activity in forced swimming test. Type of experiment: in vivo. As to conditions: 100 mg/kg po, 60 min before testing, hydrochloride. As for the experimental part:
To evaluate the anti-depressants activity of the compounds, the inhibitory effects on immobility in forced swimming test in mice were measured according to the methods described by Porsolt et al. [Porsolt R D et al., Eur J Pharmacol. 1978, 51, 291-294].
Each mouse was placed in a 25-cm glass cylinder (10 cm diameter) containing 15 cm of water maintained at 22±1 , and was forced to swim for 10 min. Twenty-four hours later, the mouse was replaced into the cylinder and the total duration of immobility was recorded during the last 5 min of the 6-min testing period. Mice are judged immobile when they float in an upright position and make only small movements to keep their head above water. Test drugs were suspended in 3% Tween 80 solution, and administered orally (po) 60 min before the testing.

Here are results for 16 compounds from US8895558B2, “Arylpiperazine-containing pyrrole 3-carboxamide derivatives for treating depressive disorders” (Green Cross Corporation, priority 2008, dated 2014).

The term IC50 denotes the concentration needed to halve the response being measured.

Each structure is given as a SMILES string. Counter-ions that a name gives are not always drawn.

T3 sequence (P31645 whole entry): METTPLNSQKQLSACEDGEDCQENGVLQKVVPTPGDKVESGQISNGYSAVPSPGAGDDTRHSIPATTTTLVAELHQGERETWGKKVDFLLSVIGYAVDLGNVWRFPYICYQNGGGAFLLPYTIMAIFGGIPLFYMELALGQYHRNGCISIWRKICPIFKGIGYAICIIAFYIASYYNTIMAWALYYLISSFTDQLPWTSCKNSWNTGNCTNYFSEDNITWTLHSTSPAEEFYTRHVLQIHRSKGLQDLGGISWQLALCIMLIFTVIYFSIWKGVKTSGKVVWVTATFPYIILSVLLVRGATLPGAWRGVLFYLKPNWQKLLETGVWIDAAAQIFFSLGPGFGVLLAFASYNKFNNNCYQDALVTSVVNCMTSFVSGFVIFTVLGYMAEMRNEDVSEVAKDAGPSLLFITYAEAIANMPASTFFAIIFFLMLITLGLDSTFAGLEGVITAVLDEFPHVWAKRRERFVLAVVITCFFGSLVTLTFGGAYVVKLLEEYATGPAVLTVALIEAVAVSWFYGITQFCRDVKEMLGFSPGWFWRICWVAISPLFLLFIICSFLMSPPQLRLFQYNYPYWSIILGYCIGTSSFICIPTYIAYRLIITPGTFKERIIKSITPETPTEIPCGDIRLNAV
T1 sequence (P28223 whole entry): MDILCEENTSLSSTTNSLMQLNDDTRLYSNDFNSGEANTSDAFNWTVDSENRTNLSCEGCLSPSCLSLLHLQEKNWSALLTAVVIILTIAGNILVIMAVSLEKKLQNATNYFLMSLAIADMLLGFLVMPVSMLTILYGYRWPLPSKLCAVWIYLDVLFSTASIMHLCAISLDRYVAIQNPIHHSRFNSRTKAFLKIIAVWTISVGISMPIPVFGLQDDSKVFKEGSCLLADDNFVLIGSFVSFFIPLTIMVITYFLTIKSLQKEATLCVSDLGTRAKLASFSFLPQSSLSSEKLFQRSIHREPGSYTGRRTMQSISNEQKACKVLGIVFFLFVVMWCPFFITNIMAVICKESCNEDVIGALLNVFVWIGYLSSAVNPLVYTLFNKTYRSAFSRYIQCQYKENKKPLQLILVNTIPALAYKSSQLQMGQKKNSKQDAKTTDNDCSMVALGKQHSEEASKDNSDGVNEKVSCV

Consider `Cc1[nH]c(-c2ccccc2)cc1C(=O)NCCN1CCN(c2cccc(Cl)c2Cl)CC1.Cl` [Example 48, N-(2-(4-(2,3-dichlorophenyl)piperazin-1-yl)ethyl)-2-methyl-5-phenyl-1H-pyrrole-3-carboxamide hydrochloride], for which the results for the IC50 in experiment [1], in experiment [2] and in experiment [3] were 175 nM, 156 nM and 57 nM, respectively. Besides, the “immobility in forced swimming test” value in experiment [4] is reported as 26.1%.
On to `CCCn1c(-c2ccccc2)cc(C(=O)NCCCN2CCN(c3cccc(Cl)c3Cl)CC2)c1Cl` [Example 116], for which the 50% inhibitory concentration (IC50) worked out at 69 nM in experiment [1], 136 nM in experiment [2] and 1090 nM in experiment [3].
For the compound `O=C(NCCCN1CCN(c2cccc(Cl)c2Cl)CC1)c1c[nH]c(-c2ccccc2)c1` [Example 124, N-(3-(4-(2,3-dichlorophenyl)piperazin-1-yl)propyl)-5-phenyl-1H-pyrrole-3-carboxamide], the values for the IC50 in experiment [1], in experiment [2] and in experiment [3] were 23 nM, 106 nM and 54 nM, respectively.
Regarding `Cc1[nH]c(C(C)(C)C)cc1C(=O)NCCCN1CCN(c2cccc(Cl)c2Cl)CC1` [Example 127, 5-tert-butyl-N-(3-(4-(2,3-dichlorophenyl)piperazin-1-yl)propyl)-2-methyl-1H-pyrrole-3-carboxamide hydrochloride], the 50% inhibitory concentration (IC50) in experiment [1] turned out to be 107 nM; in experiment [2], 1390 nM; in experiment [3], 860 nM.
For `Cc1c(C(=O)NCCCN2CCN(c3cccc(Cl)c3Cl)CC2)cc(C(C)(C)C)n1C` [Example 128, 5-tert-butyl-N-(3-(4-(2,3-dichlorophenyl)piperazin-1-yl)propyl)-1,2-dimethyl-1H-pyrrole-3-carboxamide], the IC50 in experiment [1] is 163 nM; in experiment [2], 1020 nM; in experiment [3], 375 nM.
Regarding `C=CCCc1cc(C(=O)NCCCN2CCN(c3cccc(Cl)c3Cl)CC2)c(C)[nH]1` [Example 135, 5-(but-3-enyl)-N-(3-(4-(2,3-dichlorophenyl)piperazin-1-yl)propyl)-2-methyl-1H-pyrrole-3-carboxamide], the IC50 in experiment [1] was 65 nM; in experiment [2], 157 nM; in experiment [3] it was 144 nM.
In the case of `C=CCCc1cc(C(=O)NCCCN2CCN(c3cccc(Cl)c3Cl)CC2)c(C)n1C` [Example 136, 5-(but-3-enyl)-N-(3-(4-(2,3-dichlorophenyl)piperazin-1-yl)propyl)-1,2-dimethyl-1H-pyrrole-3-carboxamide], the results for the IC50 in experiment [1], in experiment [2] and in experiment [3] were 108 nM, 173 nM and 347 nM, respectively.
In the case of `CCCCc1cc(C(=O)NCCCN2CCN(c3cccc(Cl)c3Cl)CC2)c(C)[nH]1` [Example 137, 5-butyl-N-(3-(4-(2,3-dichlorophenyl)piperazin-1-yl)propyl)-2-methyl-1H-pyrrole-3-carboxamide], the figures for the IC50 in experiment [1], in experiment [2] and in experiment [3] were 68 nM, 133 nM and 62 nM, respectively.
Consider `CCCCc1cc(C(=O)NCCCN2CCN(c3cccc(Cl)c3Cl)CC2)c(C)n1C` [Example 138, 5-butyl-N-(3-(4-(2,3-dichlorophenyl)piperazin-1-yl)propyl)-1,2-dimethyl-1H-pyrrole-3-carboxamide], for which the figures for the IC50 in experiment [1], in experiment [2] and in experiment [3] were 134 nM, 268 nM and 334 nM, respectively.
Regarding `Cc1c(C(=O)NCCCN2CCN(c3ccc(Cl)cc3Cl)CC2)cc(-c2ccccc2)n1C` [Example 154, N-(3-(4-(2,4-Dichlorophenyl)piperazin-1-yl)propyl)-1,2-dimethyl-5-phenyl-1H-pyrrole-3-carboxamide hydrochloride], the IC50 in experiment [1] was 213 nM; in experiment [2], 349 nM; in experiment [3], 23 nM.
Take `Cc1c(C(=O)NCCCN2CCN(c3ccc(F)cc3)CC2)cc(-c2ccccc2)n1C` [Example 155, N-(3-(4-(4-Fluorophenyl)piperazin-1-yl)propyl)-1,2-dimethyl-5-phenyl-1H-pyrrole-3-carboxamide]: the results for the 50% inhibitory concentration (IC50) in experiment [1], in experiment [2] and in experiment [3] were 22 nM, 493 nM and 183 nM, respectively.
On the same counts, the results for `Cc1c(C(=O)NCCCN2CCN(c3cc(Cl)ccc3Cl)CC2)cc(-c2ccccc2)n1C` [Example 156, N-(3-(4-(2,5-Ddichlorophenyl)piperazin-1-yl)propyl)-1,2-dimethyl-5-phenyl-1H-pyrrole-3-carboxamide] are 585 nM, 806 nM and 134 nM.
For `COc1cccc(N2CCN(CCCNC(=O)c3cc(-c4ccccc4)n(C)c3C)CC2)c1OC` [Example 158, N-(3-(4-(2,3-dimethoxyphenyl)piperazin-1-yl)propyl)-1,2-dimethyl-5-phenyl-1H-pyrrole-3-carboxamide], the 50% inhibitory concentration (IC50) came to 666 nM in experiment [1], 782 nM in experiment [2] and 1260 nM in experiment [3].
In the case of `CCCn1c(-c2ccccc2)cc(C(=O)NCCCN2CCN(c3cccc(OC)c3OC)CC2)c1C` [Example 159, N-(3-(4-(2,3-dimethoxyphenyl)piperazin-1-yl)propyl)-2-methyl-5-phenyl-1-propyl-1H-pyrrole-3-carboxamide], the IC50 turned out to be 874 nM in experiment [1], 977 nM in experiment [2] and 1980 nM in experiment [3].
Turning to `Cc1cc(C(=O)NCCCN2CCN(c3cccc(Cl)c3Cl)CC2)c(C)n1-c1ccccc1` [Example 170, N-(3-(4-(2,3-dichlorophenyl)piperazin-1-yl)propyl)-2,5-dimethyl-1-phenyl-1H-pyrrole-3-carboxamide], the half-inhibitory concentration (IC50) amounted to 132 nM in experiment [1], 98 nM in experiment [2] and 20 nM in experiment [3].
`Cc1c(Cl)cccc1N1CCN(CCCNC(=O)c2cc(C)n(-c3ccccc3)c2C)CC1` [Example 176, N-(3-(4-(3-chloro-2-methylphenyl)piperazin-1-yl)propyl)-2,5-dimethyl-1-phenyl-1H-pyrrole-3-carboxamide]: the IC50 in experiment [1] came to 170 nM; in experiment [2] it was 127 nM; in experiment [3], 15 nM.
